Data from BindingDB's records for PubMed 1356154 (Dupont Pharmaceuticals, 1992).
Where “and” joins values, the source holds several entries; their conditions need not be identical. Equal entries are not always repeated.

What follows are molecules tested against D(2) dopamine receptor (Rattus norvegicus, UniProt P61169).
D(2) dopamine receptor, sequence (P61169 whole entry): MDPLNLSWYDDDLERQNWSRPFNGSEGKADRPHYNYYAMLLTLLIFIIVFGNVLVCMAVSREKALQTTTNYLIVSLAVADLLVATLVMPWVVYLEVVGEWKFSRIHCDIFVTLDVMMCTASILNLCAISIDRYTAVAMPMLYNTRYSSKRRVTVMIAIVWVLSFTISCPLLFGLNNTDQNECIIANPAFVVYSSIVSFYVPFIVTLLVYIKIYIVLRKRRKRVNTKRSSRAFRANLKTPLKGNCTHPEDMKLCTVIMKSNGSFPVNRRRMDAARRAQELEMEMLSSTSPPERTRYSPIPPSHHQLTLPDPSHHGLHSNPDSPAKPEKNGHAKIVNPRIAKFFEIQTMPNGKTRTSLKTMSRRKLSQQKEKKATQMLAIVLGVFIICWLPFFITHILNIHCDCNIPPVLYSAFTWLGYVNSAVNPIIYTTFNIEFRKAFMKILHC

SMILES	Ki
NC1CCc2cc(O)c(O)cc2C1 (centres undefined)	6.1 nM and 24 nM
CC(C)C[C@H]1C(=O)N2CCC[C@H]2[C@]2(O)O[C@](NC(=O)[C@@H]3C=C4c5cccc6[nH]c(Br)c(c56)C[C@H]4N(C)C3)(C(C)C)C(=O)N12 [Bromocriptine+ (GTP+)]	83 nM and 54 nM
CN(C)CCCSc1ccccc1NC(=O)/C=C/c1ccccc1 [CINANSERIN]	> 10000 nM
O=C(O)c1ccccc1C(=O)Nc1cccc2ccccc12 [NPA,(+)]	4.8 nM
